Data taken from patent US20060025430A1, “Novel irreversible inhibitors of epidermal growth factor receptor tyrosine kinase and uses thereof for therapy and diagnosis” (priority 2003, published 2006).

Experiments:
[1] = Challenge reaction with reduced glutathione (HPLC conversion to conjugates); type: physicochemical
Description: Standard solutions were prepared by dissolving compound 5, Compound 6 and {4-[(3,4-dichloro-6-fluorophenyl)amino]quinazol ine-6-yl}acrylamide (0.0146 mmol) in 1.75 ml of THF: MeOH (1:2) and glutathione (18 mg, 0.0586 mmol) in 0.5 ml of water. A 300 μL aliquot of the quinazoline standard solution (2.5 μmol) was diluted with 689 μL of THF:MeOH:H2O (1:2:1), after which 11 μL (1.25 μmol) of glutathione solution and 5.22 μL (30 μmol) of N,N′-diisopropylethylamine were added. Conversions of the quinazolines and formation of conjugates at different time points were measured by HPLC using RP (3.9×300 mm) column (mobile phase of acetonirile and acetate buffer 0.1 M (2:3) at a flow rate of 1 ml/min was used herein). The glutathione conjugates were further detected by MS.
As discussed hereinabove, EGFR blockade by irreversible inhibitors is due to the nucleophilic attack of the sulfhydryl group of Cys-773 at the receptor's ATP binding pocket on the reactive chemical group of the EGFR targeted inhibitor. In order to evaluate the chemical reactivity of the novel irreversibly EGFR inhibitors decribed herein, the degree of reactivity of the inhibitors towards the sulfhydryl group of reduced glutathione (GSH) as a nucleophile was tested. Thus, Compound 5, Compound 6 and {4-[(3,4-dichloro-6-fluorophenyl)amino]quinazoline-6-yl}acrylamide were dissolved in THF: MeOH: H2O (1:2:1), and were reacted at room temperature with half an equivalent of reduced glutathione in the presence of 12 equivalents of N,N-diisopropylethylamine. Identical aliquots of the reaction mixtures were taken at various time points and injected into reversed-phase HPLC in order to determine the conversion-rate of the various compounds into glutathione-conjugates. The characteristics of the products were determined using MS.
A study of the reaction rate as a function of the temperature was also performed. Thus, the reaction ws performed at various temperatures ranging from 0° C. and 60° C. The following activation parameters were generated: For {4-[(3,4-dichloro-6-fluorophenyl)amino]quinazoline-6-yl}acrylamide: Ea=5.24 kCalmol^−1, ΔH^#25° C.=4.64 kCalmol^−1 and ΔS^#25° C.=−61.24 Calmol^−1K^−1. For compound 5: Ea=11.4 kCalmol^−1, ΔH^#25° C.=10.80 kCalmol^−1 and ΔS^#25° C.=−41.29 Calmol^−1K^−1.
The reaction rate was calculated using the following rate equation: [formula] kobs=Ae^−Ea/RT

[2] = molecular target: T1, EGFR (Homo sapiens, UniProt P00533); experiment: Selective-inhibition assay in DHER14 cells (receptor phosphotyrosine, Western blot); type: cell-based; details: DHER14 cells expressing EGFR, 1 hour incubation, EGF stimulation
T1 construct: expressed in transfected cells; host or cells: NIH3T3 (DHER14 cells)
T1 sequence (P00533 25-1210): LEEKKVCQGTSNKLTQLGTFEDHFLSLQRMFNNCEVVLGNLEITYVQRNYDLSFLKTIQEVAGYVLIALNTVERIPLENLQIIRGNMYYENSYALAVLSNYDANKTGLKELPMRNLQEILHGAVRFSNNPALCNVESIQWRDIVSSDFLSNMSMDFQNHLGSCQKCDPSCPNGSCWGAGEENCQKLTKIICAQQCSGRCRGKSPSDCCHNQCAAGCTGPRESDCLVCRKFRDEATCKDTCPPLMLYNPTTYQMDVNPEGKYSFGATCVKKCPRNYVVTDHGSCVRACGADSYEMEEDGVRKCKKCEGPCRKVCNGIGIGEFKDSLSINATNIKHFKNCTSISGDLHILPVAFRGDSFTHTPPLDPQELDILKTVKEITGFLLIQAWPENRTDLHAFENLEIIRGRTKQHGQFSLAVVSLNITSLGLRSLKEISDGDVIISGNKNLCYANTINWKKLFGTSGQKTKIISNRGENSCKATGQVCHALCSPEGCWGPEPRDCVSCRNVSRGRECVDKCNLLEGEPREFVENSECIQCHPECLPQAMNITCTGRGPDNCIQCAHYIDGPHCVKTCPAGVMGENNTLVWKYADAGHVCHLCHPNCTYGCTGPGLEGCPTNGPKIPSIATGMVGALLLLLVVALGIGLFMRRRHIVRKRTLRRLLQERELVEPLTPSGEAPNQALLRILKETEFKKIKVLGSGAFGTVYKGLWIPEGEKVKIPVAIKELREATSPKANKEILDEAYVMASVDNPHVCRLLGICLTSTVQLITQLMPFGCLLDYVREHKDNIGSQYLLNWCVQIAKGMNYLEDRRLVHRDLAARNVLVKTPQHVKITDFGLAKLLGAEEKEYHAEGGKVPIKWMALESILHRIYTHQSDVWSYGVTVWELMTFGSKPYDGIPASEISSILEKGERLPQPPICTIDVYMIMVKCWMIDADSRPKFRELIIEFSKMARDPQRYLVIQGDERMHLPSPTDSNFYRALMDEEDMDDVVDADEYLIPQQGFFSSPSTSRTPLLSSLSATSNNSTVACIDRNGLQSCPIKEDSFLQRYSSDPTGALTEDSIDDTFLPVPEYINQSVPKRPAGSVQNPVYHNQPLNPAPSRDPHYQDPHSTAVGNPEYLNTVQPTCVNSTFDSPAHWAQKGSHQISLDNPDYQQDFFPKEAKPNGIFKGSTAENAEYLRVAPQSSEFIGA
Description: NIH3T3 cells transformed with either the EGFR (DHER14 cells), with the HER1-HER2 chimera (CSH12 cells) or with the PDGFR (NIH/PDGFR cells), decribed by Lee et al.; 1989, Honegger et al., 1988; and Shawver et al. 1997, and A431 human epidermoid vulval carcinoma cells were grown in Dulbecco's modified Eagle's medium (DMEM) (Biological industries, Kibbuts Beit Haemek, Israel) supplemented with 10% fetal calf serum and antibiotics (penicillin […], streptomycin 100 mg/liter) at 37° C. in 5% CO2.
Selective-inhibition assay: CSH12, DHER14 and […] cells, expressing either the HER1-HER2 chimera, EGFR or PDGFR, respectively, were used for the determination of inhibitory selectivity. Cells (7.5×10^4) were grown in 6-well plates (35 mm diameter, Nalge Nunc) for 24 hours and then incubated in 0.25% FCS-containing medium for an additional 24 hours to about 90% confluence. Duplicate sets of cells were treated with the tested compounds at varying concentrations for 1 hour. The final concentration of the vehicle in the medium was 0.05% DMSO, 0.1% EtOH. After removal of the inhibitor from the medium, PBS wash (×2) and addition of 0.25% serum-containing medium to the wells, the cells were stimulated with either 20 ng/mL human EGF for 5 minutes (CSH12 and DHER14 cells) or 50 ng/ml human PDGFββ for 10 minutes ([…] cells) at 37° C. […]

With O=C(CCl)Nc1ccc2ncnc(Nc3cc(Cl)c(Cl)cc3F)c2c1 [Compound 5, N-{4-[(4,5-Dichloro-2-fluoro-phenyl)amino]-quinazolin-6-yl}-2-chloroacetamide] the “ΔH^# 25° C. of reaction with reduced glutathione” value ([1]; 25° C.) was 10.80 kCalmol^−1, the “ΔS^# 25° C. of reaction with reduced glutathione” value ([1]; 25° C.) was −41.29 Calmol^−1K^−1 and the “activation energy Ea of reaction with reduced glutathione” value ([1]; temperatures from 0° C. to 60° C.) was 11.4 kCalmol^−1. For the same molecule, the IC50 [2] was 5 to 15 nM.
